Laboratory results published in patent publication US20260109674A1, “ALLOSTERIC MODULATION OF MUSCARINIC ACETYLCHOLINE RECEPTOR EFFICACY” (The University of Toledo, priority 2022, published 2026).
Like-named read-outs stand apart in the source and are kept apart here.

Key:
[1] = molecular target: T1, M1 muscarinic receptors expressed in CHO cells (Homo sapiens, UniProt P11229); experiment: [3H]-arachidonic acid release screen with and without ACh and modulator; assay type: cell-based; settings: for Modulation of ACh activity (in words): [3H]AA release, modulator 10 μM
T1 construct: expressed in transfected cells; host or cells: CHO (CHO-hM1, stably transfected)
T1 sequence (P11229 1-460): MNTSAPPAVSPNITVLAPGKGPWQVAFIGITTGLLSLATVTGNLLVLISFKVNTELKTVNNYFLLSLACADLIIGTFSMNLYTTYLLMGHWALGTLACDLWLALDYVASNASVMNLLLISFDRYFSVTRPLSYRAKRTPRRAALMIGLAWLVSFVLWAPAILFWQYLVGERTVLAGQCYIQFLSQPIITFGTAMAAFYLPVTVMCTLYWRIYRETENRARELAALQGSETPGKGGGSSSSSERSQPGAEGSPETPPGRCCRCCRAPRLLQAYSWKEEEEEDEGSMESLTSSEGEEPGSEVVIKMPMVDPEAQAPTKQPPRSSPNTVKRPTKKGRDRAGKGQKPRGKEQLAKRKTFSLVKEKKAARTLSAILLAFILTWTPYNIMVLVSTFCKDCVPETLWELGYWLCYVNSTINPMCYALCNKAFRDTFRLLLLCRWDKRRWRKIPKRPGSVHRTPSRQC
Experimental: CHO cells expressing human M1 muscarinic receptors were cultured at 37° C. in a 5% CO2 atmosphere in F12 medium supplemented with 5% fetal bovine serum, 100 units/mL penicillin, and 100 μg/mL streptomycin.
Measurement of [^3H]AA release was performed. Stably transfected CHO-hM1 or CHO-hM3 cells were seeded on 24-well plates (Greiner Bio-One GmbH, Frickenhausen, Germany) at a density of 5.0×10^4 cells/well in 0.5 ml of F-12 medium. Cells were incubated until they attached (approximately 3 h), followed by the addition of [^3H]AA to a final concentration of 0.05 μCi of [^3H]AA per well. The cells were then grown for 16 to 20 h before the assay was performed. [^3H]AA release was measured in Eagle's basal medium with 20 mM HEPES and 2 mg/ml fatty acid-free bovine serum albumin (EM-BSA). Cells were rinsed twice with EM-BSA, followed by the addition of EM-BSA media containing experimental agents and incubated for 1 h at 37° C. The assay was terminated by aspiration of the media, and the amount of [^3H]AA released was determined by liquid scintillation counting (Beckman-Coulter LS6500).
For some assays, pretreatment with phenoxybenzamine (POB) was employed, as indicated, to reduce the number of available receptors per cell. Stock POB was made up at 10 mM in ethanol and stored at −20° C. Each well was pretreated with 0.5 ml of the appropriate concentration in PBS with 1 mM CaCl2 and 1 mM MgCl2 (PBS++) for 30 min at 37° C., followed by 5 washes with PBS++. After pretreatment, the normal protocol was followed as above.
Tabulated [^3H]AA release data are represented as a fraction of maximal release in the presence of 100 μM ACh or as the fraction of release elicited by the appropriate concentration of ACh alone, as indicated dose-response curves were normalized to the maximal response of ACh without allosteric ligand. Some response curves were analyzed using the empirical four-parameter equation: […]
Disintegration per minute (DPM) values for a single compound were obtained in triplicate, and each compound was evaluated on three separate 24-well plates. The mean values for each condition from each of the three 24-well plates were used for the statistical analysis. The baseline mean was subtracted from each value, then normalized to the mean response produced by 100 μM ACh (set at 1.0). Statistical analyses were completed on the normalized values via one-way repeated measures ANOVA with Tukey's post hoc test. Statistically significant differences are noted as follows: *, p<0.05; **, p<0.01; ***, p<0.001.

[2] = test system: wild-type zebrafish larvae; experiment: Maximum tolerated concentration (MTC) determination in zebrafish larvae; assay type: in vivo, Danio rerio; settings: after 24-hour exposure; Table 3
Experimental: Determination of maximum tolerated concentration was completed by placing 5 days post fertilization (dpf) wild-type zebrafish larvae in a 24 well plate at 6 fish per well, and one compound concentration per well. […] Death was determined by the absence of heartbeat. Additional endpoints were used to assess toxicity at non-lethal concentrations such as startle capacity (poke stimulus), abnormalities in swimming behavior (loss of dorsoventral balance), and gross morphological deformities (bent body). […] The MTC determination was used to select three doses of each compound (low, medium, high dose) to be used in behavioral assays.

[3] = test system: wild-type zebrafish larvae; experiment: General locomotor assay in zebrafish larvae (locomotor activity, repetitive behaviors); assay type: in vivo, Danio rerio; settings: Table 3; tested at 1 μM due to toxicity at 10 μM (footnote a)
Experimental: Five days post fertilization (dpf) zebrafish larvae were exposed to a range of nonlethal concentrations of the compounds in a 24-well plate with appropriate controls. The movement of each larval zebrafish was monitored with the Noldus behavior recording system (Noldus Information Technology, Leesburg VA) and quantified using EthoVision® XT 15 software (Noldus Information Technology, Leesburg VA). The plate was immediately placed in the incubator for a 30-minute exposure period. After 30 minutes, the plate was transferred to the Noldus system and swimming behavior was recorded in 100% light for 30 minutes to measure spontaneous swimming behavior. The light was switched off for 10 minutes (dark period) and then switched on for 10 minutes (light period), which was then repeated for two additional cycles. In total, the larvae were exposed to three cycles of alternating 10-minute dark and light periods (100% darkness-to-100% light). […]
All data for exposure and the behavioral end points were analyzed by one-way ANOVA (factor: drug conc) followed by a Dunnett's multiple comparisons test for post hoc significance between drug concentration and control group. Statistically significant differences are noted as follows: *, p<0.05; **, p<0.01; ***, p<0.001.

[4] = 10 μM modulator, 0.1 μM ACh, Table 1
[5] = 10 μM modulator, 100 μM ACh, Table 1

| SMILES | Ratio of response of ACh with modulator to response of ACh alone, 0.1 μM ACh [1] | Ratio of response of ACh with modulator to response of ACh alone, 100 μM ACh [1] | Stimulation of [3H]AA release, No ACh (fraction of stimulation above the control) ([1]; 10 μM modulator, Table 1) | Modulation of ACh activity (in words) [1] | Maximum Tolerated Concentration [2] [µM] | Angular Velocity [3] | Total Distance Moved [3] | Variance of Turn Angle [3] | Ratio of response of ACh with modulator to response of ACh alone, 0.1 μM ACh [1, 4] | Ratio of response of ACh with modulator to response of ACh alone, 100 μM ACh [1, 5] |
| --- | --- | --- | --- | --- | --- | --- | --- | --- | --- | --- |
| CCCCc1oc2ccccc2c1C(=O)c1cc(I)c(OCC[N+](CC)(CC)CC)c(I)c1 [Compound 2, N-ethylamiodarone, reference compound] | 0.17 ± 0.04 | 0.50 ± 0.03 | 0.04 ± 0.02 | NAM of mAChR efficacy | 1 | 128.9 ± 18.5 % of control | 95.8 ± 11.0 % of control | 97.6 ± 10.3 % of control | – | – |
| CCCCc1oc2ccccc2c1C(=O)c1cc(I)c(O)c(I)c1 [Compound 3, reference compound] | – | – | 0.02 ± 0.00 | completely inactive | 3 | 101.8 ± 19.2 % of control | 145.4 ± 21.7 % of control | 93.4 ± 9.4 % of control | 0.42 ± 0.00 | 0.81 ± 0.07 |
| CCCCc1oc2ccccc2c1C(=O)c1ccc(O)cc1 [Compound 4, reference compound] | 0.49 ± 0.09 | 0.72 ± 0.04 | 0.03 ± 0.02 | completely inactive | 0.3 | 105.7 ± 14.8 % of control | 56.7 ± 9.3 % of control | 115.8 ± 12.4 % of control | – | – |
| COc1c(F)cc(CN2C(=O)C(=O)c3ccccc32)cc1F [Compound 8g, 1-(3,5-difluoro-4-methoxybenzyl)indoline-2,3-dione] | – | – | 0.03 ± 0.01 | – | 30 | – | – | – | 1.33 ± 0.03 | 0.94 ± 0.02 |
| COc1ccc(CN2C(=O)C(=O)c3ccccc32)cc1F [Compound 8h, 1-(3-fluoro-4-methoxybenzyl)indoline-2,3-dione] | – | – | 0.04 ± 0.01 | – | 30 | – | – | – | 1.17 ± 0.02 | 1.03 ± 0.01 |
| O=C1C(=O)N(Cc2cc(F)c(F)c(F)c2)c2ccccc21 [Compound 8i, 1-(3,4,5-trifluorobenzyl)indoline-2,3-dione] | – | – | 0.07 ± 0.01 | – | 10 | – | – | – | 1.39 ± 0.06 | 1.05 ± 0.02 |
